In article PMC3984256, “A PCNA-Derived Cell Permeable Peptide Selectively Inhibits Neuroblastoma Cell Growth” (PLoS ONE, 2014):

Key:
SK-N-BE(2)c cells = assay: Clonogenic assay; format: cell-based, human; conditions: R9-caPep alone 20 µM 3 weeks, or cisplatin alone 1 µM 2 h, 3 dishes averaged
Protocol: Three hundred fifty SK-N-BE(2)c cells were seeded onto a 60-mm tissue culture dish. Once attached overnight, cells were treated with or without cisplatin for 2 h. Cells were washed twice with growth medium and were cultured in fresh medium with or without R9-caPep for 3 weeks to allow colony formation. The medium was changed every 3 d. The colonies formed under each treatment conditions were counted after being stained with 0.5% crystal violet.

panel of NB cell lines = format: cell-based, human; conditions: up to 50 µM; data not shown
Protocol: The human NB cell lines, SK-N-DZ, SK-N-BE(2)c, SK-N-AS, SK-N-SH, and SK-N-FI were obtained from the American Type Culture Collection (Rockville, MD). Cells were maintained in DMEM with 10% fetal bovine serum (FBS), 100 units/ml penicillin, and 100 µg/ml streptomycin in the presence of 5% CO2 at 37°C. Human PBMCs from a healthy donor were purchased from Sanguine BioSciences (Valencia, CA) and grown in RPMI1640 with10% FBS, 100 units/ml penicillin, 100 µg/ml streptomycin, and 10 ng/ml IL-2 in the presence of 5% CO2 at 37°C. Human embryonic progenitor cell line 7SM0032 was acquired from Millipore (Billerica, MA) and grown in the hEPM-1 Media Kit purchased from the same company.
To measure cell growth, cells were seeded at 3×10^4/ml. After being allowed to attach overnight, cells were treated with various concentrations of the peptides for 72 h. Cell growth was measured by the CellTitor-Glo assay (Promega, Madison, WI) according to manufacturer's instruction. To measure apoptosis, cells were seeded at 1×10^5/ml onto a chamber slide. Once attached, cells were treated with the peptides for 48 h. Cells were fixed and analyzed by a TUNEL assay using the TMR red in situ cell death detection kit (Roche Diagnostics, Indianapolis, IN).

[1] = system: PCNA and FEN1 co-localization in SK-N-AS NB cells; assay: PCNA/FEN1 co-localization, immunofluorescence; format: cell-based, human; conditions: synchronized, 30 µM peptide 6 h after mimosine release
Protocol: (§1) Cells were seeded at 1×10^5/ml onto a chamber slide and were allowed to attach overnight. To analyze the interaction of PCNA with FEN1, LIGI, or Pol ä, we first synchronize cells at the G1/S boundary. The synchronization is achieved by starving cells in medium containing 0.25% FBS for 24 h. Cells were further cultured in the complete medium containing 400 µM of mimosine for 24 h. To release cells into S phase, cells were washed and incubated in mimosine-free medium containing 30 µM R9-caPep or R9-srbPep for 6 h. We pre-determined that the majority of cells were in the S-phase 6 h after mimosine was removed (data not shown). Cells were fixed in ice-cold methanol:acetone (50%:50%) for 10 min or in 4% paraformaldehyde for 20 min at room temperature. Cells were incubated with a goat polyclonal anti-PCNA antibody (Santa Cruz) and a mouse monoclonal anti-FEN1 antibody (Santa Cruz), a mouse anti-POLD3 antibody (Sigma, St. Louis, MO), or a mouse anti-LIGI antibody (Abcam, Cambridge, MA) for 1 h at room temperature. After being washed with PBS, cells were incubated with Alexa Fluor 488 conjugated anti-mouse IgG and Alexa Fluor 555 conjugated anti-goat IgG antibodies (Invitrogen, Grand Island, NY) for 1 h. Cells were mounted in Vectashield with DAPI (Vector Labs, Burlingame, CA) and visualized by a confocal microscope.

[2] = system: PCNA and LIGI co-localization in SK-N-AS NB cells; assay: PCNA/LIGI co-localization, immunofluorescence; format: cell-based, human; conditions: synchronized, 30 µM peptide 6 h after mimosine release
Protocol: as §1

synchronized cells = assay: Cell cycle analysis of synchronized cells within 6 h (data not shown); format: cell-based; conditions: 6 h after mimosine release
Protocol: Cells were seeded at 1×10^5/ml. Once attached, cells were treated with or without R9-caPep for 48 hours. Cells were fixed in 60% ethanol and stained with propidium iodide (PI). The cellular PI fluorescence intensity was determined by flow cytometry. The flow cytometry data were analyzed by the FlowJo program to model various cell populations.
as §1, with “After being washed with PBS, cells were incubated with Alexa Fluor 488 conjugated anti-mouse IgG and Alexa Fluor 555 conjugated anti-goat IgG antibodies (Invitrogen, Grand Island, NY) for 1 h. Cells were mounted in Vectashield with DAPI (Vector Labs, Burlingame, CA) and visualized by a confocal microscope.” left out

ãH2A.X level = assay: γH2A.X western blot after γ-irradiation; format: cell-based; conditions: 30 µM peptide, 2 h pretreatment, 5 Gy
Protocol: (§2) To study DNA damage and repair, attached cells were pretreated with the peptides for 2 h and were then ã-irradiated (5 Gy). After irradiation, cells were cultured in the presence of the peptides for the indicated time. For analyzing ãH2A.X foci formation, cells were fixed in a solution of methanol and acetone (70%:30% v/v) for 15 min at −20°C. The slides were air-dried for storage and rehydrated in PBS prior to immunostaining. Cells were stained by a mouse monoclonal antibody specific to ãH2A.X (Millipore, Billerica, MA) followed by an Alexa Fluor 488 conjugated anti-mouse IgG antibody. For analyzing Rad51 foci formation, cells were fixed in PBS buffered 4% paraformaldehyde at room temperature for 15 min. After being washed twice by PBS, cells were permeabilized in PBS containing 0.5% triton for 15 min on ice. The fixed and permeabilized cells were stained with a rabbit polyclonal antibody raised against the human Rad51 (Santa Cruz) followed by an Alexa Fluor 488 conjugated anti-rabbit IgG antibody. Stained cells were visualized and imaged by a confocal microscope.
Cell extracts were prepared by dissolving cell pellets directly into the Laemmli sample buffer and resolved in a 4–12% SDS polyacrylamide gel. Resolved proteins were blotted onto a nitrocellulose membrane. The membrane was blocked with 5% nonfat dry milk and incubated with an antibody specific to ãH2A.X (Millipore), total H2A.X (Cell Signaling Technology, Danvers, MA), MYCN (Cell Signaling Technology), or actin (Sigma) in the blocking buffer. After incubation with peroxidase-conjugated secondary antibodies, the protein of interest was detected using an ECL kit purchased from GE Healthcare.

[3] = system: Rad51 foci in SK-N-BE(2)c cells; assay: Rad51 foci immunofluorescence after γ-irradiation; format: cell-based, human; conditions: 2 h peptide pretreatment, 5 Gy; 48 h after irradiation
Protocol: as §2

[4] = target: T1, interaction between PCNA and the PIP-box sequence of FEN1 (Homo sapiens, UniProt P39748); assay: SPR (Biacore) PCNA binding to immobilized FEN1 PIP-box in presence of caPep
T1 construct: Recombinant PCNA (rPCNA), purchased from Surmodics, Inc. (Edina, MN); FEN1 peptide containing the PIP-box (SKSRQGSTQGRLDDFF); purchased Surmodics, Inc. (Edina, MN)
Protocol: All experiments were conducted on the Biacore T100 (GE Healthcare Life Sciences, Piscataway, NJ) in the running buffer HBS-EP+ (10 mM HEPES pH 7.4, 0.15 M NaCl, 3 mM EDTA, 0.05% v/v Surfactant P20). FEN1 peptide containing the PIP-box (SKSRQGSTQGRLDDFF) was immobilized on a carboxymethylated dextran modified CM5 chip using carbodiimide covalent linkage procedures outlined by the manufacturer (GE Healthcare Life Sciences). Recombinant PCNA (rPCNA), purchased from Surmodics, Inc. (Edina, MN), were serially diluted in the HBS-EP+ buffer and flowed over the FEN1-coated sensor chip in the presence of 0, 500, or 1000 nM of caPep at a 5 ìl/min flow rate with a contact time of 3 minutes, followed by dissociation under the same buffer condition and regeneration of the chip surface in 10 mM glycine-HCl (pH 2.0). Binding curves were recorded for rPCNA concentrations ranging from 250 to 1000 nM in the presence of 0, 500, or 1000 nM of caPep. Kinetic parameters from Biacore binding data were determined using Biacore T100 Evaluation Software Version 2.0.3.

With `N.N.[Cl][Pt][Cl]` [cisplatin, reference compound] the “reduction of number of colonies, single agent” value (SK-N-BE(2)c cells) was “less than 30%”.
“RDRDRDRDRDRDRDRDRDCCEPGLIYEQ [R9-srbPep, R9-CC fused to the same residues as PCNA L126-Y133 in scrambled order; control]” was tested, and the “effect on cell growth” value (panel of NB cell lines) was “did not significantly affect cell growth up to 50 µM”, the “FEN1 co-localization with PCNA foci” value [1] was “PCNA co-localized with FEN1 and LIGI at discrete foci” and the “LIGI co-localization with PCNA foci” value [2] was “PCNA co-localized with FEN1 and LIGI at discrete foci”. The “cell cycle progress within 6 h” value (synchronized cells) was “neither peptide significantly affected cell cycle progress within 6 h”, the “ãH2A.X level within 30 min after irradiation” value (ãH2A.X level) was “increased within 30 min following ã-irradiation in cells treated with either peptide” and the “ãH2A.X level 48 h after irradiation” value (ãH2A.X level; 48 h) was “went down to a basal level by 48 h”. For the same compound, the “Rad51 foci at 48 h” value [3] was “almost completely resolve the Rad51 foci”.
With “caPep: eight amino acid peptide corresponding to the L126-Y133 sequence of human PCNA (LGIPEQEY)” the “affinity of PCNA-FEN1 PIP-box interaction” value ([4]; 0, 500 or 1000 nM caPep) was “decrease the affinity of PCNA-FEN1 PIP-box interaction in a dose-dependent manner” and the “rPCNA interaction with immobilized FEN1 PIP-box sequence (SPR response)” value ([4]; 1000 nM rPCNA, 0, 500 or 1000 nM caPep) was “significantly reduced rPCNA interaction with the immobilized FEN1 PIP-box sequence”.
